Measured values published in patent publication US20160153032A9, “METHOD FOR PREDICTING A MANIFESTATION OF AN OUTCOME MEASURE OF A CANCER PATIENT” (Signature Diagnostics AG, priority 2013, published 2016).

Test system: patient derived xenografts (PDXs) of colorectal tumors
Assay: Therapy experiments in patient derived xenograft models, treated to control (T/C) ratio of tumor size
Type: in vivo, NMRI: nu/nu mice
Conditions: monotherapy, 67 PDX models
Description: Transplantation of 239 human, primary colorectal tumors of patients with colorectal cancer of all four UICC stages was performed onto nude mice. […] For each drug and each of the 67 xenograft models, five mice were treated in addition to five control animals (335 animals plus 335 controls per drug). At the end of the therapy experiment, the median diameter of the tumors (C) of the 5 control animals is devided by the median diameter of the five treated animals (T).
Shortly after surgery, original colorectal cancer tumor pieces were shipped in gentamicin containing RPMI-1640 medium to the mouse facility. After arrival at the mouse facilities they were transplanted onto immunodeficient mice and were further passaged until a stably grown tumor xenografts has developed.
Surgical colorectal tumor samples were cut into pieces of 3 to 4 mm and transplanted within 30 min s.c. to 3 to 6 immunodeficient NOD/SCID mice (Taconic); the gender of the mice was chosen according to the donor patient. Additional tissue samples were immediately snap-frozen and stored at −80° C. for genetic, genomic, and protein analyses. […] Mice were observed daily for tumor growth. At a size of about 1 cm3, tumors were removed and passaged to naive NMRI: nu/nu mice (Charles River) for chemosensitivity testing. Tumors were passaged no more than 10 times. Numerous samples from early passages were stored in the tissue bank in liquid nitrogen and used for further experiments. […] All xenografts as well as the corresponding primary tumors were subjected to histological evaluation using snap-frozen, haematoxylin-eosin-stained tissue sections.
Each of the 75 tumors was transplanted onto 20 mice (5 controls and 5 for each drug).
The chemotherapeutic response of the passagable tumors was determined in male NMRI: nu/nu mice. For that purpose, one tumor fragment each was transplanted s.c. to a number of mice. At palpable tumor size (50-100 mm^3), 6 to 8 mice each were randomized to treatment and control groups and treatment was initiated. […] Doses and schedules were chosen according to previous experience in animal experiments and represent the maximum tolerated or efficient doses. The injection volume was 0.2 ml/20 g body weight.
Tumor size was measured in two dimensions twice weekly with a caliper-like instrument. Individual tumor volumes (V) were calculated by the formula: V=(length+[width]2)/2 and related to the values at the first day of treatment (relative tumor volume). Median treated to control (T/C) values of relative tumor volume were used for the evaluation of each treatment modality and categorized according to scores (− to ++++;). The mean tumor doubling time of each xenograft model was calculated by comparing the size between 2- and 4-fold relative tumor volumes. Statistical analyses were done with the U test (Mann and Whitney) with P<0.05. The body weight of mice was determined every 3 to 4 days and the change in body weight was taken as variable for tolerability.

Bevacizumab: humanized monoclonal antibody that binds to vascular endothelial growth factor A (VEGF-A)
Nonresponder PDXs (T/C</=25 (T/C<25)): 56 | Responder PDXs (T/C</=30, tumor growth inhibited by at least 70%): 13 | Nonresponder PDXs (T/C</=30): 54 | Responder PDXs (T/C</=35 (T/C<35), tumor growth inhibited by at least 65%): 19 | Nonresponder PDXs (T/C</=35 (T/C<35)): 48
